Source: paper PMC9749938, “Alkyltriphenylphosphonium turns naphthoquinoneimidazoles into potent membrane depolarizers against mycobacteria” (RSC Medicinal Chemistry, 2022)
Converted amounts (≈) assume the structure as drawn. Read-outs that look alike come from different tables or passages of the source.

Assays:
[1] = tested on: M. bovis BCG; assay: microbe, parasite or virus in culture; type: cell-based, Mycobacterium bovis BCG; conditions: for MIC50 / MIC90 / IC50: Mycobacterium tuberculosis variant bovis BCG, BCG; for MIC50: read-out: M. bovis BCG MIC50, concentration reducing growth by 50% vs untreated controls; for M. bovis BCG MIC50: concentration reducing growth by 50% vs untreated controls; for M. bovis BCG MIC90: concentration reducing growth by 90% vs untreated controls; for IC50: read-out: M. bovis BCG MIC50
[2] = tested on: Vero E6 cells; assay: Cytotoxicity on Vero E6 cells; type: cell-based, African green monkey; conditions: Chlorocebus sabaeus, Vero C1008; 48 h; reduces growth of Vero E6 by 50% vs untreated controls
[3] = tested on: M. bovis BCG; type: cell-based, Mycobacterium bovis BCG; conditions: 4× MIC90, up to 24 h
[4] = Horseradish peroxidase-phenol red assay for H2O2 generation; type: biochemical; conditions: in vitro, with DTT
[5] = Aqueous solubility (Multiscreen solubility filter plates); type: physicochemical; conditions: pH 7.4, 24 h agitation
[6] = tested on: M. bovis BCG; assay: microbe, parasite or virus in culture; type: cell-based; conditions: Mycobacterium tuberculosis variant bovis BCG, 120 h
[7] = tested on: M. bovis BCG; type: cell-based, Mycobacterium bovis BCG; conditions: 0.5× to 2× MIC90, 1.5 h + 30 min dye
[8] = tested on: M. bovis BCG; type: cell-based, Mycobacterium bovis BCG; conditions: 4× MIC90, time course to 24 h and after
[9] = tested on: M. tb H37Rv; assay: MIC determination by broth dilution on M. tb H37Rv; type: cell-based; conditions: Mycobacterium tuberculosis
[10] = tested on: M. bovis BCG-piniBAC-RFP; type: cell-based, Mycobacterium bovis BCG; conditions: 24 h, various concentrations
[11] = tested on: M. bovis BCG-pfurA-RFP; type: cell-based, Mycobacterium bovis BCG; conditions: 24 h, 37 °C
[12] = tested on: M. bovis BCG; type: cell-based, Mycobacterium bovis BCG
[13] = tested on: M. bovis BCG; type: cell-based, Mycobacterium bovis BCG; conditions: 4× MIC90, after 24 hours
[14] = tested on: M. bovis BCG; type: cell-based, Mycobacterium bovis BCG; conditions: 4× MIC90, up to 24 h; remark: listed apart in the source
[15] = tested on: inverted membrane vesicles of wild-type M. smegmatis mc^24517; assay: NADH oxidation in inverted membrane vesicles, WT; type: biochemical; conditions: for EC50: WT M. smegmatis mc^24517, read-out: EC50 of activation of NADH oxidation, WT IMV
[16] = read-out: M. bovis BCG MIC90, concentration reducing growth by 90% vs untreated controls, broth dilution
[17] = Universal buffer with 1% DMSO, pH 7.4, 25 °C
[18] = read-out: MIC90 of control compounds (Fig. 4 legend), controls of redox assays, organism not restated

SMILES: Cc1nc2c(n1CCC[P+](c1ccccc1)(c1ccccc1)c1ccccc1)C(=O)c1ccccc1C2=O.[I-] [Compound 3]
- MIC50 ([1]; broth dilution): 4 µM
- MIC90 [1, 16]: 5.6 µM
- M. bovis BCG MIC50 ([1]; broth dilution): 4.0 (4.0, 4.0) μM
- IC50 [2]: > 400 µM

SMILES: Cc1nc2c(n1CCCCC[P+](c1ccccc1)(c1ccccc1)c1ccccc1)C(=O)c1ccccc1C2=O.[I-] [Compound 4]
- MIC50 ([1]; broth dilution): 2.4 µM
- MIC90 [1, 16]: 4.6 µM
- M. bovis BCG MIC90 ([1]; broth dilution): 4.6 (4.6, 4.6) μM
- IC50 [2]: > 400 µM

SMILES: Cc1nc2c(n1CCCCCCC[P+](c1ccccc1)(c1ccccc1)c1ccccc1)C(=O)c1ccccc1C2=O.[I-] [Compound 5]
- MIC50 ([1]; broth dilution): 1.2 µM
- MIC90 [1, 16]: 2.3 µM
- M. bovis BCG MIC50 ([1]; broth dilution): 1.2 (1.2, 1.2) μM
- IC50 [2]: 48.4 µM

SMILES: Cc1nc2c(n1CCCCCCCCC[P+](c1ccccc1)(c1ccccc1)c1ccccc1)C(=O)c1ccccc1C2=O.[I-] [Compound 6]
- Membrane potential (DiOC2(3) red/green ratio) [3]: rapid and sustained loss of membrane potential
- H2O2 generation, HRP-phenol red assay [4]: negligible H2O2 generation
- solubility at 24 h ([5]; 25 °C): 105.8 µM
- solubility at 24 h [5, 17]: 106 µM
- MBC ([6]; read-out: M. bovis BCG MBC90): 1.6 µM
- MBC ([6]; read-out: M. bovis BCG MBC99): 3.1 µM
- MBC ([6]; read-out: M. bovis BCG MBC99.9): 6.2 µM
- ROS formation in cultures (CellROX Green) [7]: negligible levels of ROS
- Intracellular ATP levels [8]: initial drop in ATP levels
- MIC50 [9]: 0.37 µM
- MIC90 [9]: 0.8 µM
- Induction of piniBAC promoter (RFP fluorescence) [10]: no increase in fluorescence
- Induction of pfurA promoter (RFP fluorescence) [11]: not observed
- MIC50 ([1]; broth dilution): 0.59 µM
- MIC90 [1, 16]: 1 µM
- M. bovis BCG MIC50 ([1]; broth dilution): 0.58 (0.6, 0.59) μM
- Time-kill: CFU over 21 days [12]: steady decrease of CFU up to day 8
- CFU count of treated cultures [13]: remained relatively constant
- Membrane permeabilization (SYTO9/PI green/red ratio) [14]: not accompanied by membrane permeabilization
- IC50 [2]: 12.4 µM

SMILES: Cc1nc2c(n1CCCCCCCCCCC[P+](c1ccccc1)(c1ccccc1)c1ccccc1)C(=O)c1ccccc1C2=O.[I-] [Compound 7]
- Membrane potential (DiOC2(3) red/green ratio) [3]: rapid and sustained loss of membrane potential
- Activation of NADH oxidation, WT IMV ([15]; WT M. smegmatis): negligible activation of NADH oxidation
- H2O2 generation, HRP-phenol red assay [4]: negligible H2O2 generation
- solubility at 24 h [5, 17]: 27 µM
- MBC ([6]; read-out: M. bovis BCG MBC90): 1.6 µM
- MBC ([6]; read-out: M. bovis BCG MBC99): 3.1 µM
- MBC ([6]; read-out: M. bovis BCG MBC99.9): 6.2 µM
- ROS formation in cultures (CellROX Green) [7]: negligible levels of ROS
- Intracellular ATP levels [8]: initial drop in ATP levels
- MIC50 [9]: 1.15 µM
- MIC90 [9]: 1.8 µM
- Induction of piniBAC promoter (RFP fluorescence) [10]: no increase in fluorescence
- Induction of pfurA promoter (RFP fluorescence) [11]: not observed
- IC50 [1]: 0.55 µM
- MIC50 ([1]; broth dilution): 0.5 µM
- MIC90 [1, 16]: ≤ 1 µM
- CFU count of treated cultures [13]: remained relatively constant
- Membrane permeabilization (SYTO9/PI green/red ratio) [14]: not accompanied by membrane permeabilization
- IC50 [2]: 5.6 µM

SMILES: CCCCCCC[P+](c1ccccc1)(c1ccccc1)c1ccccc1.[I-] [Compound 8]
- Membrane potential (DiOC2(3) red/green ratio) [3]: behaved similarly to 6 and 7
- MIC50 ([1]; broth dilution): 5.5 µM
- MIC90 [1, 16]: 10.5 µM
- M. bovis BCG MIC90 ([1]; broth dilution): 10.5 (10.2, 10.8) μM

SMILES: CCCCCCCCCCC[P+](c1ccccc1)(c1ccccc1)c1ccccc1.[I-] [Compound 9]
- Membrane potential (DiOC2(3) red/green ratio) [3]: behaved similarly to 6 and 7
- MIC50 ([1]; broth dilution): 2.1 µM
- MIC90 [1, 16]: 2.8 µM

SMILES: Cc1nc2ccccc2n1CCCCCCC[P+](c1ccccc1)(c1ccccc1)c1ccccc1.[I-] [Compound 10]
- MIC50 ([1]; broth dilution): 3.8 µM
- MIC90 [1, 16]: 5.6 µM
- M. bovis BCG MIC50 ([1]; broth dilution): 3.8 (3.8, 3.8) μM
- IC50 [2]: 86.4 µM

SMILES: Cc1nc2ccccc2n1CCCCCCCCCCC[P+](c1ccccc1)(c1ccccc1)c1ccccc1.[I-] [Compound 11]
- MIC50 ([1]; broth dilution): 0.9 µM
- MIC90 [1, 16]: 1.4 µM
- M. bovis BCG MIC90 ([1]; broth dilution): 1.4 (1.4, 1.4) μM
- IC50 [2]: 11.5 µM

SMILES: Cc1cc(=O)n(CCCCCCC[P+](c2ccccc2)(c2ccccc2)c2ccccc2)c2c1C(=O)c1ccccc1C2=O.[I-] [Compound 12]
- MIC50 ([1]; broth dilution): 1 µM
- MIC90 [1, 16]: 1.4 µM
- M. bovis BCG MIC90 ([1]; broth dilution): 1.4 (1.4, 1.4) μM
- IC50 [2]: 5.9 µM

SMILES: Cc1cc(=O)n(CCCCCCCCCCC[P+](c2ccccc2)(c2ccccc2)c2ccccc2)c2c1C(=O)c1ccccc1C2=O [Compound 13]
- MIC50 ([1]; broth dilution): 3.8 µM
- MIC90 [1, 16]: 5.7 µM
- IC50 [2]: 2.1 µM

SMILES: O=C1c2ccccc2C(=O)c2c1nc(C(F)(F)F)n2CCCCCCCCCCC[P+](c1ccccc1)(c1ccccc1)c1ccccc1 [Compound 14]
- MIC50 ([1]; broth dilution): 1.8 µM
- MIC90 [1, 16]: 2.8 µM
- IC50 [2]: 5.6 µM

SMILES: Cc1nc2c(n1CCCCCCCCCCC[P+](c1ccccc1)(c1ccccc1)c1ccccc1)C(=O)c1cccnc1C2=O [Compound 15]
- IC50 [1]: 0.6 µM
- MIC50 ([1]; broth dilution): 0.65 µM
- MIC90 [1, 16]: 1.2 µM
- IC50 [2]: 5.4 µM

SMILES: Cc1nc2c(n1CCCCCCC[n+]1ccccc1)C(=O)c1ccccc1C2=O.[I-] [Compound 16]
- MIC50 ([1]; broth dilution): 28.7 µM
- MIC90 [1, 16]: 48.5 µM
- M. bovis BCG MIC50 ([1]; broth dilution): 28.7 (32.5, 25.0) μM
- M. bovis BCG MIC90 ([1]; broth dilution): 48.5 (48.0, 49.0) μM

SMILES: Cc1nc2c(n1CCCCCCC[P+](C1CCCCC1)(C1CCCCC1)C1CCCCC1)C(=O)c1ccccc1C2=O.[I-] [Compound 17]
- MIC50 ([1]; broth dilution): 1.3 µM
- MIC90 [1, 16]: 2.5 µM
- M. bovis BCG MIC50 ([1]; broth dilution): 1.3 (1.3, 1.3) μM
- IC50 [2]: 24.4 µM

SMILES: Cc1nc2c(n1CCCCCCCCCCC[P+](C1CCCCC1)(C1CCCCC1)C1CCCCC1)C(=O)c1ccccc1C2=O.[I-] [Compound 18]
- MIC50 ([1]; broth dilution): 0.6 µM
- MIC90 [1, 16]: 0.9 µM
- M. bovis BCG MIC50 ([1]; broth dilution): 0.6 (0.6, 0.6) μM
- IC50 [2]: 4.1 µM

SMILES: CCCCCC[P+](CCCCCC)(CCCCCC)CCCCCCCn1c(C)nc2c1C(=O)c1ccccc1C2=O.[I-] [Compound 19]
- MIC50 ([1]; broth dilution): 0.7 µM
- MIC90 [1, 16]: 1.4 µM
- M. bovis BCG MIC50 ([1]; broth dilution): 0.7 (0.7, 0.7) μM
- M. bovis BCG MIC90 ([1]; broth dilution): 1.4 (1.4, 1.4) μM
- IC50 [2]: 5.2 µM

SMILES: CCCCn1c2c([n+](C3CCC4(CCCCC4)CC3)c1C)C(=O)c1ccccc1C2=O.[Br-] [Compound 44, reference compound]
- EC50 [15]: 0.76 µM
- ROS formation in cultures (CellROX Green) [7]: dose-dependent ROS formation
- Induction of pfurA promoter (RFP fluorescence) [11]: discernible dose-dependent increase in the fluorescence signal
- MIC90 [1, 18]: 0.32 µM

SMILES: CCCCCCCCn1c2c([n+](CCCC)c1C)C(=O)c1ccccc1C2=O.[Br-] [Compound 45, reference compound]
- EC50 [15]: 0.2 µM
- ROS formation in cultures (CellROX Green) [7]: dose-dependent ROS formation
- Induction of pfurA promoter (RFP fluorescence) [11]: discernible dose-dependent increase in the fluorescence signal
- MIC90 [1, 18]: 0.32 µM

SMILES: NNC(=O)c1ccncc1 [INH, isoniazid, reference compound]
- Induction of piniBAC promoter (RFP fluorescence) [10]: increased piniBAC promoter activity
- MIC90 [1, 18]: 3.7 µM (≈ 0.507 µg/mL)
- Time-kill: CFU over 21 days [12]: rapid decrease in CFU in the first two time points

SMILES: O=C1C=CC(=O)c2ccccc21 [NQ, 1,4-Naphthoquinone, reference compound]
- MIC90 [1, 18]: 100 µM (≈ 15.8 µg/mL)
